pIC50: −log10 of the molar value. Where “and” joins values, the source holds several entries; their conditions need not be identical. Equal entries are not always repeated. No end group written: not given here.
Assays:
α-glucosidase = details: peptide from ovalbumin; ref Yu et al. [2012]; read-out: α-glucosidase inhibitory activity IC50; cited from earlier work
[1] = target: T1, ACE (EC 3.4.15.1; from rabbit lung) (Oryctolagus cuniculus, UniProt P12822); test: ACE inhibitory activity (HHL substrate, spectrophotometric); type: biochemical; details: synthetic peptides; mean n = 3; read-out: Enzyme inhibitory activity (IC50) ACE (converted)
T1 construct: The ACE (EC 3.4.15.1; from rabbit lung, Sigma, A6778); purchased Sigma A6778; host or cells: rabbit lung tissue
T1 sequence (P12822 34-1310): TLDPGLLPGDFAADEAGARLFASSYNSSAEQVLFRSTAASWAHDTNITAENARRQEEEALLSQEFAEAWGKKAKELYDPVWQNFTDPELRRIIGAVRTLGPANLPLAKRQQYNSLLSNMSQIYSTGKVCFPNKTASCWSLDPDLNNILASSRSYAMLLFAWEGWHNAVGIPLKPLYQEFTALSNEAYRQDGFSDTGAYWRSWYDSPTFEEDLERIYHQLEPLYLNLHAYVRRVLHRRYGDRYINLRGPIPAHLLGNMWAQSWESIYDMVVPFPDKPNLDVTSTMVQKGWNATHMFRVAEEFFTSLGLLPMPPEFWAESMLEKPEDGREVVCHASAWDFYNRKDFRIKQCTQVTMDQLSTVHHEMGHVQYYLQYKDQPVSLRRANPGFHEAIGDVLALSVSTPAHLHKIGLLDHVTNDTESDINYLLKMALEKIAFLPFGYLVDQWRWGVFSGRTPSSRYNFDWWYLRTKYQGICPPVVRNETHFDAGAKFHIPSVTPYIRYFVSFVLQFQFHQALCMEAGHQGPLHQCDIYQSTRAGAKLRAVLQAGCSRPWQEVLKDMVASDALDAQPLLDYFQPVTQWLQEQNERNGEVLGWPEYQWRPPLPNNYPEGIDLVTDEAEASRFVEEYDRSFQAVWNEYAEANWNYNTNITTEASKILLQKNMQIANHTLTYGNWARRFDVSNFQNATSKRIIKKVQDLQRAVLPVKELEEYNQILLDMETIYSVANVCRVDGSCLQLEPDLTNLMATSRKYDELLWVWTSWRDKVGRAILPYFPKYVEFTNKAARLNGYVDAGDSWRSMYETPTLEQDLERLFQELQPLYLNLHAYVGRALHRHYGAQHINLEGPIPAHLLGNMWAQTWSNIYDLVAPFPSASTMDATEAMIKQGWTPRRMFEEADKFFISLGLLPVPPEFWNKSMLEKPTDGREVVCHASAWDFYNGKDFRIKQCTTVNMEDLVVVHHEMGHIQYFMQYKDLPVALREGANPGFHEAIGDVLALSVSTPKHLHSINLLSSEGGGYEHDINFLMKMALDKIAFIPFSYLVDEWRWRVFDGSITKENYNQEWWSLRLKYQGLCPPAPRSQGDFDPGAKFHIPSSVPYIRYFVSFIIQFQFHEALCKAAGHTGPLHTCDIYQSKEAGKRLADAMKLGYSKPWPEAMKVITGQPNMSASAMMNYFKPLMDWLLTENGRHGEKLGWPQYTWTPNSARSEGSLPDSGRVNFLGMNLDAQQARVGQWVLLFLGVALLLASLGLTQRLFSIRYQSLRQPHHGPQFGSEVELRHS
Experimental: The ACE (EC 3.4.15.1; from rabbit lung, Sigma, A6778) inhibitory activity of hydrolysate and peptide fractions was measured spectrophotometrically according to Miguel et al. ([2004]). A hydrolysate solution (40 µL) mixed with a Hippuryl-His-Leu (HHL) (Sigma H4884) solution (5 mM in 100 mM potassium phosphate containing 300 mM sodium chloride, pH 8.3) as substrate was preincubated at 37 °C for 5 min, and the reaction was initiated by adding 20 µL (2 mU) of ACE solution and incubating for 30 min at the same temperature. The enzymatic reaction was halted by the addition of 150 µL of 1 M HCl. The liberated hippuric acid was extracted using 1 mL of ethyl acetate and vigorous shaking, after which 750 µL of the upper layer was transferred into a test tube and evaporated in a vacuum. The hippuric acid left in the tubes was re-dissolved in 800 µL of distilled water and the absorbance was measured at λ = 228 nm. All samples were tested in three replications. The inhibition activity was calculated using the following equation:
Inhibition activity (%) = [(A − B)/A] × 100 %
where A is the reaction blank, of which the mixture contained the same volume of the buffer solution instead of the ACE inhibitor sample; B is the reaction in the presence of both ACE and its inhibitor. The IC50 value was estimated from a dose–response curve of an inhibitor versus the ACE activity.

[2] = target: α-Glucosidase from Saccharomyces cerevisiae (Saccharomyces cerevisiae, UniProt P53341); test: α-Glucosidase inhibitory activity (pNPG substrate); type: biochemical; details: synthetic peptides, mean n = 3; for IC50: read-out: Enzyme inhibitory activity (IC50) α-Glucosidase (converted)
Experimental: The α-glucosidase inhibition assay was performed according to the method of Yu et al. ([2011]). α-Glucosidase from Saccharomyces cerevisiae (Sigma G0660) hydrolyzes the substrate—p-nitrophenyl glucopyranoside (pNPG) (Sigma N1377) and the thus produced p-nitrophenol can be measured spectrophotometrically. 5 µL of the α-glucosidase solution (10 U/mL, in 0.1 M potassium phosphate buffer, pH 6.8) was premixed with 10 µL of the sample solution at different concentrations (in 10 % DMSO) in 620 µL of 0.1 M potassium phosphate buffer (pH 6.8). Following incubation at 37.5 °C for 20 min, 10 µL of p-nitrophenyl glucopyranoside (pNPG 10 mM) as substrate was added to the mixture to start the reaction and was then incubated at 37.5 °C for 30 min, followed by addition of 650 µL of 1 M Na2CO3 solution to terminate the reaction. The amount of released product (p-nitrophenol) was measured at λ = 410 nm. The IC50 value was defined as the concentration of inhibitor required to inhibit 50 % of α-glucosidase activity under assay conditions.

[3] = target: T2, DPP-4 from porcine kidney (Sus scrofa, UniProt P22411); test: Dipeptidyl peptidase-4 (DPP-4) inhibitory activity (Gly-Pro-p-nitroanilide); type: biochemical; details: synthetic peptides, mean n = 3; for IC50: read-out: Enzyme inhibitory activity (IC50) DPP-4 (converted)
T2 construct: DPP-4 from porcine kidney was purchased from Sigma (D7052); purchased Sigma D7052; host or cells: porcine kidney tissue
Experimental: DPP-4 inhibitory activity (IC50) was determined using a modified method of Lacroix and Li-Chan (2013). DPP-4 from porcine kidney was purchased from Sigma (D7052). The lyophilized peptide fractions were re-suspended in 0.1 M Tris–HCl buffer, pH 8.0. The test sample (25 μL) was preincubated with an equal volume of the substrate Gly-Pro-p-nitroanilide (1.6 mM) at 37 °C for 10 min. Afterwards, 50 μL of DPP-4 (0.01 U/mL, in 0.1 M Tris–HCl buffer, pH 8.0) was added and the mixture was incubated at 37 °C for 60 min. The reaction was stopped by the addition of 100 μL of 1 M sodium acetate buffer, pH 4.0. The released p-nitroanilide as a hydrolysis product was measured at λ = 405 nm.
The IC50 value was defined as the concentration of inhibitor required to inhibit 50 % of DPP-4 activity under assay conditions.

[4] = Antioxidant activity as ability to scavenge DPPH free radicals; details: synthetic peptides; mean n = 3
Experimental: The antioxidant activity of the obtained hydrolysates was assessed on the basis of the radical scavenging effect of the stable 1,1-diphenyl-2-picrylhydrazyl [DPPH (Sigma, D21140-0)]—free radical activity according to Yen and Chen ([1995]), with minor modifications. The tested samples were dissolved in water to a final volume of 1 mL and mixed with 1 mL of ethanol (98 %). The reaction was started by adding 0.5 mL of […] DPPH in ethanol. The mixtures were left for 30 min at room temperature and the absorbance of the resulting solutions was measured at 517 nm. For calibration, aqueous solutions of known Trolox concentrations ranging from 2 to 20 μg (able to scavenge 500 μL of 0.3 mM DPPH radical solution) were used. Radical scavenging activity of the peptides was expressed as µM troloxeq/mg protein.

[5] = FRAP method (ferric reducing antioxidant power); details: synthetic peptides; mean n = 3
Experimental: The ferric reducing antioxidant power (FRAP) method was used to determine the antioxidative capacity of hydrolysates according to Benzie and Strain ([1996]). 3 mL of FRAP working solution [300 mM acetate buffer pH 3.6; 10 mM 2,4,6,tripyridyl-s-triazine (TPTZ) (Fluka, 93285) and 20 mM FeCl3 × 6 H2O (10:1:1 v/v)] was mixed with 1 mL of the sample. After 10 min of reaction, the absorbance was measured at λ = 593 nm. An aqueous solution of known Fe(II) concentration was used for calibration (in the range from 100 to 1,000 μg). Results were expressed as μg Fe^2+/mg protein.

[6] = Fe(II) ion chelation (ferrozine); details: synthetic peptides; mean n = 3
Experimental: Chelation of iron ions by hydrolysates was estimated by the method of Xu et al. ([2007]) with modifications. A 250 μL sample was mixed with 1,250 μL H2O and 110 μL 1 mM FeCl2. After 2 min, 1 mL of 500 μM ferrozine (Sigma 160601) aqueous solution was added and the mixture was allowed to react for 10 min. The absorbance of ferrous iron–ferrozine complex was measured spectrophotometrically at λ = 562 nm. A known concentration of FeCl2 (0–20 μg) was used to generate a standard curve and the ability to chelate iron ions was expressed as μg Fe^2+/mg protein.

T2 sequence (P22411 whole entry): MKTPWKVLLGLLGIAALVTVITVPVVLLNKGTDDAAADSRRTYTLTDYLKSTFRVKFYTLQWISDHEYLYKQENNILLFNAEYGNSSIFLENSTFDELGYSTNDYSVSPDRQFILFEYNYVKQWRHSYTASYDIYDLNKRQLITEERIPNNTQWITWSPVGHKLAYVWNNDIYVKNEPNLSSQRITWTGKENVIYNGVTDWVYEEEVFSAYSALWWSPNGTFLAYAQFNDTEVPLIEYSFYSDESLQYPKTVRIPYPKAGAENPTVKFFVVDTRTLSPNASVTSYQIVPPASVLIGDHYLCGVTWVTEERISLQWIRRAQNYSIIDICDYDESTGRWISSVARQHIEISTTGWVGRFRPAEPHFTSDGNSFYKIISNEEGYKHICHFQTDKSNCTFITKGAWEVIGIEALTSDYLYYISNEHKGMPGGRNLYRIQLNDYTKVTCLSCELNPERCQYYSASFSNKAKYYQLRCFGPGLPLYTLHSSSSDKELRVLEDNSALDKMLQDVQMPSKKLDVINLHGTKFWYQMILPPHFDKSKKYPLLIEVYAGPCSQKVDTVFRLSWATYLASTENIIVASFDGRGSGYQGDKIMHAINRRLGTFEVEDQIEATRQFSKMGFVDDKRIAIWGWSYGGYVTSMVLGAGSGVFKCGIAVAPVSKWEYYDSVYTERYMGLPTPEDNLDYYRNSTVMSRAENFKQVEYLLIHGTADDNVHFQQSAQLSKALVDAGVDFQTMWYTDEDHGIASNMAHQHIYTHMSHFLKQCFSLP
α-Glucosidase from Saccharomyces cerevisiae, sequence (P53341 whole entry): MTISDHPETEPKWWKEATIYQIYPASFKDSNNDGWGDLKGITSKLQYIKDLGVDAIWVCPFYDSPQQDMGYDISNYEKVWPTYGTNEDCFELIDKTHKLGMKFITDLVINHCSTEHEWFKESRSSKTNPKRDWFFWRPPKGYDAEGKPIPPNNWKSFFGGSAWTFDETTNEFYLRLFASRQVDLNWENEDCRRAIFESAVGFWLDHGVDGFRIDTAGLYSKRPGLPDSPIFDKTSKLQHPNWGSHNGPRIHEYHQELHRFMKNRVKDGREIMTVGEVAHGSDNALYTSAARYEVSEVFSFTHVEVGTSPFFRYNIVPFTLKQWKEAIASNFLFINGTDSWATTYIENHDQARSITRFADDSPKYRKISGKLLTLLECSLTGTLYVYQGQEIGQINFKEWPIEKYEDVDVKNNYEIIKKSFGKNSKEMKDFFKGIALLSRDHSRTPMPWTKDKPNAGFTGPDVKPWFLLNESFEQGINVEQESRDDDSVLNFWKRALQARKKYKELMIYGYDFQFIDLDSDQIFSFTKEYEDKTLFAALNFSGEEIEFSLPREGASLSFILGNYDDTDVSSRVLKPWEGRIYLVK

Q: With KLPGF as the substance, how does the pIC50 (α-glucosidase) read?
A: Its pIC50 is 4.23.

Q: For VTGRFAGHPAAQ [VTGRFAGHPAAQ], which IC50 [1] is on record?
A: The IC50 was 22.5 µM.

Q: What about the IC50 [2] of the same substance?
A: The IC50 was 302 µM.

Q: What about the IC50 [3] of the same substance?
A: Its IC50 is 1160 µM.

Q: For YIEAVNKVSPRAGQF-OH [YIEAVNKVSPRAGQF], which IC50 [1] is on record?
A: Its IC50 is 5.6 µM.

Q: And the “Antioxidant activity DPPH” value [4]?
A: Its value is 2.2 µM Troloxeq/mg and 2.2c µM Troloxeq/mg.

Q: What about the “Antioxidant activity FRAP” value [5] of the same substance?
A: Its value is 61.0 µg Fe^2+/mg and 61.0b µg Fe^2+/mg.

Q: What about the “Antioxidant activity CHEL.” value [6] of the same substance?
A: The value was 25.2b µg Fe^2+/mg.

Q: And the “Enzyme inhibitory activity (IC50) α-Glucosidase” value [2]?
A: Its value is “no impact”.

Q: What about the “Enzyme inhibitory activity (IC50) DPP-4” value [3] of the same substance?
A: The value was “no impact”.

Q: For YINQMPQKSRE [YINQMPQKSRE], which IC50 [1] is on record?
A: The IC50 was 7.25 µM.

Q: What about the IC50 [2] of the same substance?
A: Its IC50 is 1220 µM.

Q: What about the IC50 [3] of the same substance?
A: The IC50 was 160 µM.

Q: For YINQMPQKSREA [YINQMPQKSREA], which IC50 [1] is on record?
A: The IC50 was 8.6 µM.

Q: What about the IC50 [2] of the same substance?
A: Its IC50 is 310 µM.

Q: What about the IC50 [3] of the same substance?
A: The IC50 was 243 µM.
